Assay results: patent publication US10988478B1, “Pyrazolo[1,5a]pyrimidine derivatives as IRAK4 modulators” (Genentech, Inc., priority 2015, dated 2021)

What follows are molecules tested against human IRAK4 (Homo sapiens (Human), UniProt Q9NWZ3) (assay: IRAK4 kinase inhibition, Transcreener fluorescence polarization ADP assay). Conditions: recombinant full-length His6-IRAK4; 125 uM ATP; 90 min; Ki computed using ATP Km 642 uM.
Type: biochemical
Description: Compounds were assayed for inhibition of human IRAK4 and IRAK1 catalytic activity using recombinant enzyme produced from insect cells. Full-length IRAK4 protein, carrying an N-terminal His6-Tag, was obtained from Life Technologies (Carlsbad, Calif., USA). The IRAK1 construct was produced internally and was comprised of IRAK1 residues Arg194 to Ser712, preceded by an NH2-terminal His6 tag and the coding sequence for glutathione-S-transferase.

human IRAK4, sequence (Q9NWZ3 whole entry): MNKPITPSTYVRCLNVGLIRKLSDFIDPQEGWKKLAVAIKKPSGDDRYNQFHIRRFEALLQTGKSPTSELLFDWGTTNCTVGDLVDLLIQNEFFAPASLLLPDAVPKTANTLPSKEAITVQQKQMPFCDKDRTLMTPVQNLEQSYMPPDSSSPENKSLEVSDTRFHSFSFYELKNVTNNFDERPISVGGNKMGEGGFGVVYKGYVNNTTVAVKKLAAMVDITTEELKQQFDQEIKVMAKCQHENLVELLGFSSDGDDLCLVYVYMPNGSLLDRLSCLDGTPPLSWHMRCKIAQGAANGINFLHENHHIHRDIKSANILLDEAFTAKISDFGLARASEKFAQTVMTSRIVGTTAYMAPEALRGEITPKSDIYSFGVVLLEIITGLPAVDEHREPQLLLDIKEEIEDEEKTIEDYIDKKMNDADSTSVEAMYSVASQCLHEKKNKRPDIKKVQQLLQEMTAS

SMILES	Ki [nM]
CN1CCc2cc(NC(=O)c3cnn4cccnc34)c(N3CCOCC3)cc2C1=O [Example 401, N-(2-Methyl-7-morpholino-1-oxo-1,2,3,4-tetrahydroisoquinolin-6-yl)pyrazolo[1,5-a]pyrimidine-3-carboxamide]	97
O=C(Nc1cc2c(cc1N1CCOCC1)S(=O)(=O)CCN2)c1cnn2cccnc12 [Example 402, N-(7-Morpholino-1,1-dioxido-3,4-dihydro-2H-benzo[b][1,4]thiazin-6-yl)pyrazolo[1,5-a]pyrimidine-3-carboxamide]	19
CC1(C)CS(=O)(=O)c2cc(N3CCOCC3)c(NC(=O)c3cnn4cccnc34)cc2N1 [Example 403, N-(3,3-Dimethyl-7-morpholino-1,1-dioxido-3,4-dihydro-2H-benzo[b][1,4]thiazin-6-yl)pyrazolo[1,5-a]pyrimidine-3-carboxamide]	680
Cn1cc(-c2cc3c(cc2NC(=O)c2cnn4cccnc24)CC(C)(C)O3)cn1 [Example 404, N-(2,2-Dimethyl-6-(1-methyl-1H-pyrazol-4-yl)-2,3-dihydrobenzofuran-5-yl)pyrazolo[1,5-a]pyrimidine-3-carboxamide]	64
CC1(C)Cc2cc(NC(=O)c3cnn4cccnc34)c(-c3cncc(C#N)c3)cc2O1 [Example 405, N-(6-(5-Cyanopyridin-3-yl)-2,2-dimethyl-2,3-dihydrobenzofuran-5-yl)pyrazolo[1,5-a]pyrimidine-3-carboxamide]	520
Cn1ccnc1-c1cc2c(cc1NC(=O)c1cnn3cccnc13)CC(C)(C)O2 [Example 406, N-[2,2-Dimethyl-6-(1-methylimidazol-2-yl)-3H-benzofuran-5-yl]pyrazolo[1,5-a]pyrimidine-3-carboxamide]	150
CC1(C)Cc2cc(NC(=O)c3cnn4cc(C#N)cnc34)c(N3CCOCC3)cc2O1 [Example 407, 6-Cyano-N-(2,2-dimethyl-6-morpholino-2,3-dihydrobenzofuran-5-yl)pyrazolo[1,5-a]pyrimidine-3-carboxamide]	6
CC1(C)Cc2cc(NC(=O)c3cnn4cccnc34)c(N3CC[N+](C)(CC(N)=O)CC3)cc2O1 [Example 408, 1-(2-Amino-2-oxoethyl)-4-(2,2-dimethyl-5-(pyrazolo[1,5-a]pyrimidine-3-carboxamido)-2,3-dihydrobenzofuran-6-yl)-1-methylpiperazin-1-ium]	46
C[C@]1(CO)Cc2cc(NC(=O)c3cnn4cccnc34)c(N3CCC([C@@](C)(O)C(F)(F)F)CC3)cc2O1 [Example 409, N—((R)-2-(hydroxymethyl)-2-methyl-6-(4-((R)-1,1,1-trifluoro-2-hydroxypropan-2-yl)piperidin-1-yl)-2,3-dihydrobenzofuran-5-yl)pyrazolo[1,5-a]pyrimidine-3-carboxamide]	6.7
C[C@]1(CO)Cc2cc(NC(=O)c3cnn4cccnc34)c(N3CCC([C@](C)(O)C(F)(F)F)CC3)cc2O1 [Example 410, N—((R)-2-(hydroxymethyl)-2-methyl-6-(4-((S)-1,1,1-trifluoro-2-hydroxypropan-2-yl)piperidin-1-yl)-2,3-dihydrobenzofuran-5-yl)pyrazolo[1,5-a]pyrimidine-3-carboxamide]	6.2
C[C@@]1(CO)Cc2cc(NC(=O)c3cnn4cccnc34)c(N3CCC([C@@](C)(O)C(F)(F)F)CC3)cc2O1 [Example 411, N—((S)-2-(hydroxymethyl)-2-methyl-6-(4-((R)-1,1,1-trifluoro-2-hydroxypropan-2-yl)piperidin-1-yl)-2,3-dihydrobenzofuran-5-yl)pyrazolo[1,5-a]pyrimidine-3-carboxamide]	7.6
C[C@@]1(CO)Cc2cc(NC(=O)c3cnn4cccnc34)c(N3CCC([C@](C)(O)C(F)(F)F)CC3)cc2O1 [Example 412, N—((S)-2-(hydroxymethyl)-2-methyl-6-(4-((S)-1,1,1-trifluoro-2-hydroxypropan-2-yl)piperidin-1-yl)-2,3-dihydrobenzofuran-5-yl)pyrazolo[1,5-a]pyrimidine-3-carboxamide]	5.9
C[C@]1(CO)Cc2cc(NC(=O)c3cnn4cccnc34)c(N3C[C@@H]4[C@H](C3)[C@H]4C(N)=O)cc2O1 [Example 413, N-((R)-6-((1R,5S,6R)-6-carbamoyl-3-azabicyclo[3.1.0]hexan-3-yl)-2-(hydroxymethyl)-2-methyl-2,3-dihydrobenzofuran-5-yl)pyrazolo[1,5-a]pyrimidine-3-carboxamide]	32
C[C@@]1(CO)Cc2cc(NC(=O)c3cnn4cccnc34)c(N3C[C@@H]4[C@H](C3)[C@H]4C(N)=O)cc2O1 [Example 414, N-((S)-6-((1R,5S,6S)-6-carbamoyl-3-azabicyclo[3.1.0]hexan-3-yl)-2-(hydroxymethyl)-2-methyl-2,3-dihydrobenzofuran-5-yl)pyrazolo[1,5-a]pyrimidine-3-carboxamide]	12
C[C@@]1(CO)Cc2cc(NC(=O)c3cnn4cccnc34)c(N3CCC4(CC3)CNC(=O)C4)cc2O1 [Example 418, (S)-N-(2-(hydroxymethyl)-2-methyl-6-(3-oxo-2,8-diazaspiro[4.5]decan-8-yl)-2,3-dihydrobenzofuran-5-yl)pyrazolo[1,5-a]pyrimidine-3-carboxamide]	4.8
C[C@@]1(CO)Cc2cc(NC(=O)c3cnn4cccnc34)c(N3Cc4cccnc4C3)cc2O1 [Example 420, (S)-N-(6-(5,7-dihydro-6H-pyrrolo[3,4-b]pyridin-6-yl)-2-(hydroxymethyl)-2-methyl-2,3-dihydrobenzofuran-5-yl)pyrazolo[1,5-a]pyrimidine-3-carboxamide]	14
C[C@@]1(O)COc2cc(N3CCC([C@](C)(O)C(F)(F)F)CC3)c(NC(=O)c3cnn4cccnc34)cc2C1 [Example 421, N—((S)-3-hydroxy-3-methyl-7-(4-((S)-1,1,1-trifluoro-2-hydroxypropan-2-yl)piperidin-1-yl)chroman-6-yl)pyrazolo[1,5-a]pyrimidine-3-carboxamide]	100
CC1(O)COc2cc(N3CCC(C(C)(O)C(F)(F)F)CC3)c(NC(=O)c3cnn4cccnc34)cc2C1 (centres unmarked) [Example 423, N-(3-hydroxy-3-methyl-7-(4-(1,1,1-trifluoro-2-hydroxypropan-2-yl)piperidin-1-yl)chroman-6-yl)pyrazolo[1,5-a]pyrimidine-3-carboxamide]	9.6

Next, values leading:

Ki [nM]	SMILES
3	C[C@]1(O)COc2cc(N3CCN(CC(N)=O)CC3)c(NC(=O)c3cnn4cccnc34)cc2C1 [Example 424, (R)-N-(7-(4-(2-amino-2-oxoethyl)piperazin-1-yl)-3-hydroxy-3-methylchroman-6-yl)pyrazolo[1,5-a]pyrimidine-3-carboxamide]
6	C[C@@]1(O)COc2cc(N3CCN(CC(N)=O)CC3)c(NC(=O)c3cnn4cccnc34)cc2C1 [Example 425, (S)-N-(7-(4-(2-amino-2-oxoethyl)piperazin-1-yl)-3-hydroxy-3-methylchroman-6-yl)pyrazolo[1,5-a]pyrimidine-3-carboxamide]
5	C[C@]1(O)COc2cc(N3CCC(C#N)CC3)c(NC(=O)c3cnn4cccnc34)cc2C1 [Example 426, (R)-N-(7-(4-cyanopiperidin-1-yl)-3-hydroxy-3-methylchroman-6-yl)pyrazolo[1,5-a]pyrimidine-3-carboxamide]
38	C[C@@]1(O)COc2cc(N3CCC(C#N)CC3)c(NC(=O)c3cnn4cccnc34)cc2C1 [Example 427, (S)-N-(7-(4-cyanopiperidin-1-yl)-3-hydroxy-3-methylchroman-6-yl)pyrazolo[1,5-a]pyrimidine-3-carboxamide]
75	C[C@]1(O)COc2cc(N3CCC(n4ccnc4)CC3)c(NC(=O)c3cnn4cccnc34)cc2C1 [Example 428, (R)-N-(7-(4-(1H-imidazol-1-yl)piperidin-1-yl)-3-hydroxy-3-methylchroman-6-yl)pyrazolo[1,5-a]pyrimidine-3-carboxamide]
12	C[C@@]1(O)COc2cc(N3CCC(n4ccnc4)CC3)c(NC(=O)c3cnn4cccnc34)cc2C1 [Example 429, (S)-N-(7-(4-(1H-imidazol-1-yl)piperidin-1-yl)-3-hydroxy-3-methylchroman-6-yl)pyrazolo[1,5-a]pyrimidine-3-carboxamide]
20	Cn1cc(COc2cc3c(cc2NC(=O)c2cnn4cccnc24)C[C@](C)(O)CO3)cn1 [Example 431, (S)-N-(3-hydroxy-3-methyl-7-((1-methyl-1H-pyrazol-4-yl)methoxy)chroman-6-yl)pyrazolo[1,5-a]pyrimidine-3-carboxamide]
22	CC(C)(O)CN1CCN(c2cc3c(cc2NC(=O)c2cnn4cccnc24)CC(C)(C)O3)CC1 [Example 434, N-(6-(4-(2-hydroxy-2-methylpropyl)piperazin-1-yl)-2,2-dimethyl-2,3-dihydrobenzofuran-5-yl)pyrazolo[1,5-a]pyrimidine-3-carboxamide]
53	CCC(O)(CC)CN1CCN(c2cc3c(cc2NC(=O)c2cnn4cccnc24)CC(C)(C)O3)CC1 [Example 435, N-(6-(4-(2-Ethyl-2-hydroxybutyl)piperazin-1-yl)-2,2-dimethyl-2,3-dihydrobenzofuran-5-yl)pyrazolo[1,5-a]pyrimidine-3-carboxamide]
55	CN(C)C(=O)[C@]1(C)Cc2cc(NC(=O)c3cnn4cccnc34)c(N3CCOCC3)cc2O1 [Example 438, (S)—N-(2-(dimethylcarbamoyl)-2-methyl-6-morpholino-2,3-dihydrobenzofuran-5-yl)pyrazolo[1,5-a]pyrimidine-3-carboxamide]
34	CN(C)C(=O)[C@@]1(C)Cc2cc(NC(=O)c3cnn4cccnc34)c(N3CCOCC3)cc2O1 [Example 439, (R)—N-(2-(dimethylcarbamoyl)-2-methyl-6-morpholino-2,3-dihydrobenzofuran-5-yl)pyrazolo[1,5-a]pyrimidine-3-carboxamide]
